How the values were obtained:
[1] = biological target: T1, 11β HSD1 (11β-hydroxysteroid dehydrogenase type 1) (Homo sapiens, UniProt P28845); assay: in vitro enzyme inhibition assay with purified recombinant enzyme; assay type: biochemical
T1 construct: gene HSD11B1; purified recombinant human 11β HSD1

[2] = biological target: T2, 11β HSD1 (11β-hydroxysteroid dehydrogenase type 1) (Mus musculus, UniProt P50172); assay: as above; assay type: biochemical
T2 construct: gene Hsd11b1; purified recombinant mouse 11β HSD1
T2 sequence (P50172 whole entry): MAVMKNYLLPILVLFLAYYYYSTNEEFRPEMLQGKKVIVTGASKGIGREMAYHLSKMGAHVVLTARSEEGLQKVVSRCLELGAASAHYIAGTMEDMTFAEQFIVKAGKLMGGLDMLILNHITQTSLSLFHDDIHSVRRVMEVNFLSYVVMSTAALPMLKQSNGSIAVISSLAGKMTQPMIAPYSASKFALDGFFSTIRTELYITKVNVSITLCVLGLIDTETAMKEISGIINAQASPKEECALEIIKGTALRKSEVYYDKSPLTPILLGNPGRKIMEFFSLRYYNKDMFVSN

T1 sequence (P28845 whole entry): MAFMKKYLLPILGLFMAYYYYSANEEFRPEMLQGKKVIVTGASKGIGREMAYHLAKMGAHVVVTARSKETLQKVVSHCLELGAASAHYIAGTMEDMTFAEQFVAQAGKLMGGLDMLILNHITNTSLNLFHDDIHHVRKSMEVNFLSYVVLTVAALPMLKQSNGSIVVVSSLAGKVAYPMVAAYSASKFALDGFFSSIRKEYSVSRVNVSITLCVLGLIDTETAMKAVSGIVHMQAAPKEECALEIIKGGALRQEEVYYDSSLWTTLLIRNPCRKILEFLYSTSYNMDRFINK

Question: Which Ki [1] does the source give for `C[C@H](NC1=NC(=O)[C@@](C)(C(F)(F)F)S1)c1ccccc1F` [BVT116429, (S)-2-((S)-1-(2-fluorophenyl)ethylamino)-5-methyl-5-(trifluoromethyl)thiazol-4(5H)-one] here?
Answer: 29 nM

Question: What about the Ki [2] of the same compound?
Answer: 36 nM
